Data set [1] has as its system lung cancer cell line (A-549). The experiment in a line: Preliminary cytotoxicity screening against lung cancer cell line A-549 (SRB assay). Conditions: for ED50 (cytotoxicity against A-549): 50% reduction in absorbance at 562 nm, Table 2 (tromethamine salts X); for ED50 (cytotoxicity against A-549) / IC50: SRB assay, A-549; for IC50: Homo sapiens, A549, 50% reduction in absorbance at 562 nm relative to untreated cells, Table 1 (esters VII, acids IX), read-out: ED50 (cytotoxicity against A-549). Format: cell-based, human. On the procedure: (§1) Compounds were assayed for in vitro cytotoxicity in a panel of human tumor cell lines at the School of Pharmacy, University of North Carolina at Chapel Hill, according to procedures described previously [Lee, K. H., Lin, Y. M., Wu, T. S., Zhang, D. C., Yamagishi, T., Hayashi, T., Hall, I. H., Chang, J. J., Wu, R. Y., Yang, T. H. The cytotoxic principles of Prunella vulgaris, Psychotria serpens, and Hyptis capitata: Ursolic acid and related derivatives. Planta Med. 1988, 54, 308-11; Boyd, M. R. Status of the National Cancer Institute preclinical antitumor drug discovery screen: implications for selection of new agents for clinical trial. Devita, V. T., Jr. Hellman, S., Rosenberg, S. A., Eds, J. B. Cancer: Principles and Practice of Oncology Update, 1989, 3: pp1-12, Lippincoft: Philadephia; Monks, A., Scudiero, D., Skehan, P., Shoemaker, R., Paull, K., Vistica, D., Hose, C., Langley, J., Cronise, P., Vaigro-Wolff, A., Gray-Goodrich, M., Campbell, H., Mayo, J., Boyd, M. Feasibility of a high-flux anticancer drug screen using a diverse panel of cultured human tumor cell lines. J. Natl. Cancer Inst. 1991, 83, 757-66.] The cell lines included human ovarian cancer (1A9), ileocecal carcinoma (HCT-8), lung carcinoma (A-549), glioblastoma (U-87-MG), bone (HOS), epidermoid carcinoma of the naynx (KB), P-gp-expressing epidermoid carcinoma of the nasopharynx (KB-VIN), and melanoma (SKMEL-2) cell line. The cytotoxic effects of each compound were obtained as EC50 values, which represent the molar drug concentrations required to cause 50% inhibition.
Preliminary screening of antitumor activity was based on the cytotoxicity tested in human long cancer (A-549) cell lines. […] Among 3-carboxylic acid derivatives (IX), the cytotoxicity was not remarkable when the m-position of 2-phenyl group was substituted by OCH3 group (IX-3, 7, 11). ED50 values were greater than 20 μg/mL. […] The antitumor activity was not good, if there was no substitution on the m-position of 2-phenyl group ([…]).

The test system of data set [2] is human ovarian cancer (IA9) cell line. The experiment in a line: Activity against HTCL replication, IA9. Type of data set: cell-based. Particulars: ovarian cancer IA9; mean ED50. On the procedure:
as §1
Antitumor activity of compounds IX-8 and X-8 was further tested on the following 8 cancer cell lines: CAKI, HOS, KB, KB-VIN, SK-MEL-2, U87-MG, HCT-8 and IA9. […] It is worth mentioning that these two compounds were quite active against human ovarian cancer cells (IA9), which were known to have a high level of drug resistant P-glycoprotein. IC50 of compound IX-8 against these cancer cells is only 0.03 μg/mL. Thus, this compound is really worth developing, particular against drug resistant ovarian cancer.

The subject of data set [3] is ileocecal carcinoma (HCT-8) cell line. As to the kind of experiment: Activity against HTCL replication, HCT-8. Particulars: mean ED50. Format: cell-based, human. On the procedure:
as §1, with “The cell lines included human ovarian cancer (1A9), ileocecal carcinoma (HCT-8), lung carcinoma (A-549), glioblastoma (U-87-MG), bone (HOS), epidermoid carcinoma of the naynx (KB), P-gp-expressing epidermoid carcinoma of the nasopharynx (KB-VIN), and melanoma (SKMEL-2) cell line. The cytotoxic effects of each compound were obtained as EC50 values, which represent the molar drug concentrations required to cause 50% inhibition.” left out

Data set [4] concerns bone (HOS) cell line. The experiment in a line: Activity against HTCL replication, HOS. Type of data set: cell-based, human. Particulars: mean ED50. On the procedure:
as §1, with “The cell lines included human ovarian cancer (1A9), ileocecal carcinoma (HCT-8), lung carcinoma (A-549), glioblastoma (U-87-MG), bone (HOS), epidermoid carcinoma of the naynx (KB), P-gp-expressing epidermoid carcinoma of the nasopharynx (KB-VIN), and melanoma (SKMEL-2) cell line. The cytotoxic effects of each compound were obtained as EC50 values, which represent the molar drug concentrations required to cause 50% inhibition.” left out

Data set [5] has as its system melanoma (SK-MEL-2) cell line. The experiment in a line: Activity against HTCL replication, SK-MEL-2. Format: cell-based, human. Particulars: mean ED50. On the procedure:
as §1, with “The cell lines included human ovarian cancer (1A9), ileocecal carcinoma (HCT-8), lung carcinoma (A-549), glioblastoma (U-87-MG), bone (HOS), epidermoid carcinoma of the naynx (KB), P-gp-expressing epidermoid carcinoma of the nasopharynx (KB-VIN), and melanoma (SKMEL-2) cell line. The cytotoxic effects of each compound were obtained as EC50 values, which represent the molar drug concentrations required to cause 50% inhibition.” left out

Data set [6] relates to glioblastoma (U87-MG) cell line. The experiment in a line: Activity against HTCL replication, U87-MG. Format: cell-based, human. Particulars: mean ED50. On the procedure: as §1, with “The cell lines included human ovarian cancer (1A9), ileocecal carcinoma (HCT-8), lung carcinoma (A-549), glioblastoma (U-87-MG), bone (HOS), epidermoid carcinoma of the naynx (KB), P-gp-expressing epidermoid carcinoma of the nasopharynx (KB-VIN), and melanoma (SKMEL-2) cell line. The cytotoxic effects of each compound were obtained as EC50 values, which represent the molar drug concentrations required to cause 50% inhibition.” left out

Converted amounts (≈) assume the structure as drawn.

With “6-Methoxy-2-phenyl-4-quinolone-3-carboxylic acid tromethamine salt [Compound X-11]”, the “ED50 (cytotoxicity against A-549)” value in data set [1] is >20 µg/mL.

As to `NC(CO)(CO)CO.O=C(O)c1c(-c2cccc(Cl)c2)[nH]c2ccc(F)cc2c1=O` [Compound X-1, 3′-Chloro-6-fluoro-2-phenyl-4-quinolone-3-carboxylic acid tromethamine salt], the “ED50 (cytotoxicity against A-549)” value in data set [1] was found to be 17.6 µg/mL. The same measure, in the same setting: the result for `NC(CO)(CO)CO.O=C(O)c1c(-c2cccc(F)c2)[nH]c2ccc(F)cc2c1=O` [Compound X-2, 3′,6-Difluoro-2-phenyl-4-quinolone-3-carboxylic acid tromethamine salt] reads 4.3 µg/mL. The same measure, in the same setting: then `NC(CO)(CO)CO.O=C(O)c1c(-c2cccc(F)c2)[nH]c2ccc(Cl)cc2c1=O` [Compound X-5, 3′-Fluoro-6-chloro-2-phenyl-4-quinolone-3-carboxylic acid tromethamine salt], with 10.9 µg/mL; and `NC(CO)(CO)CO.O=C(O)c1c(-c2cccc(Cl)c2)[nH]c2ccc(Cl)cc2c1=O` [Compound X-6, 3′,6-Dichloro-2-phenyl-4-quinolone-3-carboxylic acid tromethamine salt], with >20 µg/mL; and `COc1cccc(-c2[nH]c3ccc(Cl)cc3c(=O)c2C(=O)O)c1.NC(CO)(CO)CO` [Compound X-7, 3′-Methoxy-6-chloro-2-phenyl-4-quinolone-3-carboxylic acid tromethamine salt], with >20 µg/mL. For the compound `COc1ccc2[nH]c(-c3cccc(F)c3)c(C(=O)O)c(=O)c2c1.NC(CO)(CO)CO` [Compound X-8, 3′-Fluoro-6-methoxy-2-phenyl-4-quinolone-3-carboxylic acid tromethamine salt], the “ED50 (cytotoxicity against A-549)” value in data set [1] worked out at 2.4 µg/mL. Moreover, the “ED50 IA9” value in data set [2] is 0.88 µg/mL. Further, in data set [3], the “ED50 HCT-8” value worked out at 1.20 µg/mL. The “ED50 HOS” value in data set [4] was 5.0 µg/mL. The “ED50 SK-MEL-2” value in data set [5] was 2.0 µg/mL. For the same compound, the “ED50 U87-MG” value in data set [6] amounted to 5.0 µg/mL. Turning to `COc1ccc2[nH]c(-c3cccc(Cl)c3)c(C(=O)O)c(=O)c2c1.NC(CO)(CO)CO` [Compound X-9, 3′-Chloro-6-methoxy-2-phenyl-4-quinolone-3-carboxylic acid tromethamine salt], the “ED50 (cytotoxicity against A-549)” value in data set [1] stood at 17.6 µg/mL. As to `O=C(O)c1c(-c2cccc(Cl)c2)[nH]c2ccc(F)cc2c1=O` [IX-1, 3′-Chloro-6-fluoro-2-phenyl-4-quinolone-3-carboxylic acid], the IC50 in data set [1] was found to be 20 µg/mL (≈ 63 µM). For the compound `O=C(O)c1c(-c2cccc(F)c2)[nH]c2ccc(F)cc2c1=O` [IX-2, 3′,6-Difluoro-2-phenyl-4-quinolone-3-carboxylic acid], the melting point is 272 °C (dec.). Further, the IC50 in data set [1] worked out at 0.5 µg/mL (≈ 1.66 µM). `COc1cccc(-c2[nH]c3ccc(F)cc3c(=O)c2C(=O)O)c1` [IX-3, 6-Fluoro-3′-methoxy-2-phenyl-4-quinolone-3-carboxylic acid] had a melting point of 231 °C. In data set [1], the IC50 is > 20 µg/mL. Take `O=C(O)C1C(=O)c2cc(F)ccc2N=C1c1ccccc1` (centres unmarked) [IX-4, 6-Fluoro-2-phenyl-4-quinolone-3-carboxylic acid]: the melting point was determined as 297 °C. In the case of `O=C(O)c1c(-c2cccc(F)c2)[nH]c2ccc(Cl)cc2c1=O` [IX-5, 3′-Fluoro-6-chloro-2-phenyl-4-quinolone-3-carboxylic acid], the melting point is > 300 °C. For the same compound, the IC50 in data set [1] was determined as 1.8 µg/mL (≈ 5.67 µM).

On to `O=C(O)c1c(-c2cccc(Cl)c2)[nH]c2ccc(Cl)cc2c1=O` [IX-6, 3′,6-Dichloro-2-phenyl-4-quinolone-3-carboxylic acid], for which the melting point is 260 °C (dec.). In addition, the IC50 in data set [1] was > 20 µg/mL. Taken in the same sequence, the figures for `COc1cccc(-c2[nH]c3ccc(Cl)cc3c(=O)c2C(=O)O)c1` [IX-7, 3′-Methoxy-6-chloro-2-phenyl-4-quinolone-3-carboxylic acid] were 243 °C (dec.) and > 20 µg/mL. As for `COc1ccc2[nH]c(-c3cccc(Cl)c3)c(C(=O)O)c(=O)c2c1` [IX-9, 3′-Chloro-6-methoxy-2-phenyl-4-quinolone-3-carboxylic acid], the melting point was 223 °C (dec.). Also, the IC50 in data set [1] stood at 20 µg/mL (≈ 60.7 µM). Taken in the same sequence, the figures for `COc1cccc(-c2[nH]c3ccc(OC)cc3c(=O)c2C(=O)O)c1` [IX-10, 3′,6-Dimethoxy-2-phenyl-4-quinolone-3-carboxylic acid] were > 300 °C and > 20 µg/mL. As to `COc1ccc2c(c1)C(=O)C(C(=O)O)C(c1ccccc1)=N2` (centres unmarked) [IX-11, 6-Methoxy-2-phenyl-4-quinolone-3-carboxylic acid], the melting point was > 300 °C. Also, the “cytotoxicity / antitumor activity in words” value in data set [1] (A-549, preliminary screening) is recorded as “not good”. In data set [1], the IC50 was > 20 µg/mL.

`O=C(O)C1C(=O)c2cc(Cl)ccc2N=C1c1ccccc1` (centres unmarked) [IX-15, 6-Chloro-2-phenyl-4-quinolone-3-carboxylic acid]: the melting point is 254.2 to 255.6 °C (dec.). With `O=C(O)C1C(=O)c2cc3c(cc2N=C1c1ccccc1)OCO3` (centres unmarked) [IX-22, 6,7-Methylenedioxy-2-phenyl-4-quinolone-3-carboxylic acid], the melting point was 267.5 to 269.2 °C (dec.).

Regarding `CCOC(=O)c1c(-c2cccc(F)c2)[nH]c2ccc(Cl)cc2c1=O` [VII-5, Ethyl 3′-fluoro-6-chloro-2-phenyl-4-quinolone-3-carboxylate], the IC50 in data set [1] is > 20 µg/mL. Turning to `CCOC(=O)c1c(-c2cccc(OC)c2)[nH]c2ccc(Cl)cc2c1=O` [VII-7, Ethyl 3′-methoxy-6-chloro-2-phenyl-4-quinolone-3-carboxylate], the IC50 in data set [1] is > 20 µg/mL.

On to `CCOC(=O)c1c(-c2cccc(Cl)c2)[nH]c2ccc(OC)cc2c1=O` [VII-9, Ethyl 3′-chloro-6-methoxy-2-phenyl-4-quinolone-3-carboxylate], for which the IC50 in data set [1] was > 20 µg/mL. As to `CCOC(=O)c1c(-c2cccc(OC)c2)[nH]c2ccc(OC)cc2c1=O` [VII-10, Ethyl 3′,6-dimethoxy-2-phenyl-4-quinolone-3-carboxylate], the IC50 in data set [1] was > 20 µg/mL.
